Data from article PMC11191095, “QSAR Reveals Decreased Lipophilicity of Polar Residues Determines the Selectivity of Antimicrobial Peptide Activity” (ACS Omega, 2024).
Where a SMILES comes first, the peptide text is derived from it.

Tested on: human erythrocytes
Test: In vitro hemolytic activity
Format: cell-based
Conditions: 1 h
Summary of the method: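 Serial peptide dilutions in PBS mixed 1:1 with fresh erythrocytes, 1 h at 37 °C; supernatant OD550 measured after centrifugation. Hemolysis normalized to 0.1% Triton X-100 (full lysis) and PBS (none); HC10 and HC50 taken from dose–response curves.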

[1] = human erythrocytes in PBS, 37 °C, OD550, from dose response curves

SMILES: CC(C)[C@H](NC(=O)CNC(=O)[C@H](CCCNC(=N)N)NC(=O)[C@H](CCCNC(=N)N)NC(=O)[C@H](CS)NC(=O)[C@@H](NC(=O)[C@H](CS)NC(=O)[C@@H](N)CCCNC(=N)N)C(C)C)C(=O)N[C@@H](CS)C(=O)N[C@@H](CCCNC(=N)N)C(=O)N[C@@H](CS)C(=O)N[C@H](C(=O)N[C@@H](CS)C(=O)N[C@@H](CCCNC(=N)N)C(=O)N[C@@H](CCCNC(=N)N)C(N)=O)C(C)C [BTD15a] (H-RCVCRRGVCRCVCRR-NH2; N-terminus assumed)
- HC10 (concentration causing 10% hemolysis) [1]: 9 µg/mL
- HC50 (concentration causing 50% hemolysis) [1]: 33 µg/mL
- % hemolysis (red cells of human, 256 μg/mL): 100%
